# According to patent US9144229B2, “Tissue specific expression of antibodies in chickens” (Synageva BioPharma Corp., priority 2002, dated 2015):
# System: chicken embryonic stem cells
# Assay: Titration kill curve of chicken ES cells under puromycin or neomycin selection
# Type: cell-based
# Parameters: key to Morphology of cES cells: ES cells are present.; ES cells are differentiated.; gone: no morphologically recognizable cells are present
# Protocol: In a preferred embodiment, the concentration of puromycin required for selecting transfected cells is calculated as a titration kill curve. Titration kill curves for chicken embryonic stem cells are established by exposing cells in culture to puromycin concentrations varying from 0.0 to 1.0 μg/ml for 10 days (Table 7) and neomycin concentrations varying from 0.0 to 200 μg/ml (Table 8). The medium is changed every 2 days and fresh puromycin or neomycin is added. […] Puromycin concentrations of 0.3-1.0 μg/ml are used for selection of the transfected cultures. Neomycin concentrations over 40 μg/ml eliminated all cES cells within 7 days (Table 8).
substance,measurement,setting,value
neomycin,Morphology of cES cells,"neomycin 10 μg/ml, day 1",ES
same,Morphology of cES cells,"neomycin 10 μg/ml, day 2",ES
same,Morphology of cES cells,"neomycin 10 μg/ml, day 3",ES
same,Morphology of cES cells,"neomycin 10 μg/ml, day 4",ES
same,Morphology of cES cells,"neomycin 10 μg/ml, day 5",ES
same,Morphology of cES cells,"neomycin 10 μg/ml, day 6",ES
same,Morphology of cES cells,"neomycin 10 μg/ml, day 7",ES
same,Morphology of cES cells,"neomycin 10 μg/ml, day 8",ES
same,Morphology of cES cells,"neomycin 10 μg/ml, day 9",ES
same,Morphology of cES cells,"neomycin 10 μg/ml, day 10",ES
same,Morphology of cES cells,"neomycin 20 μg/ml, day 1",ES
same,Morphology of cES cells,"neomycin 20 μg/ml, day 2",ES
same,Morphology of cES cells,"neomycin 20 μg/ml, day 3",ES
same,Morphology of cES cells,"neomycin 20 μg/ml, day 4",ES
same,Morphology of cES cells,"neomycin 20 μg/ml, day 5",ES
same,Morphology of cES cells,"neomycin 20 μg/ml, day 6",ES
same,Morphology of cES cells,"neomycin 20 μg/ml, day 7",ES
same,Morphology of cES cells,"neomycin 20 μg/ml, day 8",ES
same,Morphology of cES cells,"neomycin 20 μg/ml, day 9",ES
same,Morphology of cES cells,"neomycin 20 μg/ml, day 10",ES
same,Morphology of cES cells,"neomycin 30 μg/ml, day 1",ES
same,Morphology of cES cells,"neomycin 30 μg/ml, day 2",ES
same,Morphology of cES cells,"neomycin 30 μg/ml, day 3",ES
same,Morphology of cES cells,"neomycin 30 μg/ml, day 4",ES
same,Morphology of cES cells,"neomycin 30 μg/ml, day 5",ES
same,Morphology of cES cells,"neomycin 30 μg/ml, day 6",ES
same,Morphology of cES cells,"neomycin 30 μg/ml, day 7",ES/Diff
same,Morphology of cES cells,"neomycin 30 μg/ml, day 8",ES/diff
same,Morphology of cES cells,"neomycin 30 μg/ml, day 9",Diff
same,Morphology of cES cells,"neomycin 30 μg/ml, day 10",Diff/
same,Morphology of cES cells,"neomycin 40 μg/ml, day 1",ES
same,Morphology of cES cells,"neomycin 40 μg/ml, day 2",ES
same,Morphology of cES cells,"neomycin 40 μg/ml, day 3",ES
same,Morphology of cES cells,"neomycin 40 μg/ml, day 4",ES
same,Morphology of cES cells,"neomycin 40 μg/ml, day 5",ES/Diff
same,Morphology of cES cells,"neomycin 40 μg/ml, day 6",Diff/
same,Morphology of cES cells,"neomycin 40 μg/ml, day 7",dead
same,Morphology of cES cells,"neomycin 40 μg/ml, day 8",gone
same,Morphology of cES cells,"neomycin 40 μg/ml, day 9",gone
same,Morphology of cES cells,"neomycin 40 μg/ml, day 10",gone
same,Morphology of cES cells,"neomycin 50 μg/ml, day 1",ES
same,Morphology of cES cells,"neomycin 50 μg/ml, day 2",ES
same,Morphology of cES cells,"neomycin 50 μg/ml, day 3",ES
same,Morphology of cES cells,"neomycin 50 μg/ml, day 4",ES/Diff
same,Morphology of cES cells,"neomycin 50 μg/ml, day 5",ES/Diff
same,Morphology of cES cells,"neomycin 50 μg/ml, day 6",Diff/
same,Morphology of cES cells,"neomycin 50 μg/ml, day 7",Dead/
same,Morphology of cES cells,"neomycin 50 μg/ml, day 8",gone
same,Morphology of cES cells,"neomycin 50 μg/ml, day 9",gone
same,Morphology of cES cells,"neomycin 50 μg/ml, day 10",gone
same,Morphology of cES cells,"neomycin 60 μg/ml, day 1",ES
same,Morphology of cES cells,"neomycin 60 μg/ml, day 2",ES
same,Morphology of cES cells,"neomycin 60 μg/ml, day 3",ES
same,Morphology of cES cells,"neomycin 60 μg/ml, day 4",gone
same,Morphology of cES cells,"neomycin 60 μg/ml, day 5",gone
same,Morphology of cES cells,"neomycin 60 μg/ml, day 6",gone
same,Morphology of cES cells,"neomycin 60 μg/ml, day 7",gone
same,Morphology of cES cells,"neomycin 60 μg/ml, day 8",gone
same,Morphology of cES cells,"neomycin 60 μg/ml, day 9",gone
same,Morphology of cES cells,"neomycin 60 μg/ml, day 10",gone
same,Morphology of cES cells,"neomycin 100 μg/ml, day 1",ES/Diff
same,Morphology of cES cells,"neomycin 100 μg/ml, day 2",Diff
same,Morphology of cES cells,"neomycin 100 μg/ml, day 3",dead
same,Morphology of cES cells,"neomycin 100 μg/ml, day 4",gone
same,Morphology of cES cells,"neomycin 100 μg/ml, day 5",gone
same,Morphology of cES cells,"neomycin 100 μg/ml, day 6",gone
same,Morphology of cES cells,"neomycin 100 μg/ml, day 7",gone
same,Morphology of cES cells,"neomycin 100 μg/ml, day 8",gone
same,Morphology of cES cells,"neomycin 100 μg/ml, day 9",gone
same,Morphology of cES cells,"neomycin 100 μg/ml, day 10",gone
same,Morphology of cES cells,"neomycin 150 μg/ml, day 2",dead
same,Morphology of cES cells,"neomycin 150 μg/ml, day 3",dead
same,Morphology of cES cells,"neomycin 150 μg/ml, day 4",gone
same,Morphology of cES cells,"neomycin 150 μg/ml, day 5",gone
same,Morphology of cES cells,"neomycin 150 μg/ml, day 6",gone
same,Morphology of cES cells,"neomycin 150 μg/ml, day 7",gone
same,Morphology of cES cells,"neomycin 150 μg/ml, day 8",gone
same,Morphology of cES cells,"neomycin 150 μg/ml, day 9",gone
same,Morphology of cES cells,"neomycin 150 μg/ml, day 10",gone
same,Morphology of cES cells,"neomycin 200 μg/ml, day 2",dead
same,Morphology of cES cells,"neomycin 200 μg/ml, day 3",gone
same,Morphology of cES cells,"neomycin 200 μg/ml, day 4",gone
same,Morphology of cES cells,"neomycin 200 μg/ml, day 5",gone
same,Morphology of cES cells,"neomycin 200 μg/ml, day 6",gone
same,Morphology of cES cells,"neomycin 200 μg/ml, day 7",gone
same,Morphology of cES cells,"neomycin 200 μg/ml, day 8",gone
same,Morphology of cES cells,"neomycin 200 μg/ml, day 9",gone
same,Morphology of cES cells,"neomycin 200 μg/ml, day 10",gone
same,concentration that eliminated all cES cells,"neomycin, within 7 days",over 40 μg/ml
